pIC50: −log10 of the molar value. Activity calls are given as the source filed them. The calls are words filed in the database; no cut-off is given here.
What was measured:
[1] = target: T1, Amine oxidase [flavin-containing] B (Homo sapiens, UniProt P27338); assay: Inhibition of human MAO-B
T1 sequence (P27338 whole entry): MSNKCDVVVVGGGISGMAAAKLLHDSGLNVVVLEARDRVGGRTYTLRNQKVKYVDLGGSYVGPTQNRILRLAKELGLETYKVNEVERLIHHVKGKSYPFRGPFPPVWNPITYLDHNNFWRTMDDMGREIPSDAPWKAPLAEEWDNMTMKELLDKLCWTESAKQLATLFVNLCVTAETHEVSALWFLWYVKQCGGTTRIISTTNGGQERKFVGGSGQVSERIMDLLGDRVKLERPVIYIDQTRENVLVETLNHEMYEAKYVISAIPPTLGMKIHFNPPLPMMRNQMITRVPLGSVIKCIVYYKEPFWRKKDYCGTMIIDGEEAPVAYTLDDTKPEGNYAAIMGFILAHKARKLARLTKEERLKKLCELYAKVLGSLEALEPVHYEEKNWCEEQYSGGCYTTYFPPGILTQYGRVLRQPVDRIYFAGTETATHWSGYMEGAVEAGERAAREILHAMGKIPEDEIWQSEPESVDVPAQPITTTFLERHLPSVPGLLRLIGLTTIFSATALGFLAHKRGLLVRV

[2] = Selectivity index, ratio of IC50 for human MAO-A to IC50 for human MAO-B
SH-SY5Y [3] = assay: Cytotoxicity against human SH-SY5Y cells at 5 to 50 uM after 24 hrs by MTT assay; assay type: cell-based; conditions: dose 5-50 µM
BV-2 [4] = assay: Cytotoxicity against C57/BL6 mouse BV-2 cells at 5 to 50 uM after 24 hrs by MTT assay; assay type: cell-based; conditions: bv-2, 24 h, dose 5-50 µM
BV-2 [5] = assay: Cytotoxicity against C57/BL6 mouse BV-2 cells assessed as induction of cell death at 50 uM after 24 hrs by MTT assay relative to control; assay type: cell-based; conditions: bv-2, 24 h
SH-SY5Y [6] = assay: Cytotoxicity against human SH-SY5Y cells assessed as induction of cell death at 50 uM after 24 hrs by MTT assay relative to control; assay type: cell-based
BV-2 [7] = assay: Neuroprotective activity against LPS-induced oxidative stress in C57/BL6 mouse BV-2 cells assessed as decrease in ROS level at < 20 uM after 24 hrs by DCFH-DA dye based fluorescence assay; assay type: functional, cell-based; conditions: dose microM <20, time 24.0 hrs
SH-SY5Y [8] = assay: Neuroprotective activity against LPS-induced oxidative stress in human SH-SY5Y cells assessed as decrease in ROS level at < 20 uM after 24 hrs by DCFH-DA dye based fluorescence assay; assay type: functional, cell-based; conditions: dose microM <20, time 24.0 hrs
Mus musculus [9] = assay: Neuroprotective activity against MPTP-induced C57BL/6J mouse model of Parkinson's disease assessed as increase in average speed at 0.2 mg/kg, ip pretreated for 7 consecutive days followed by MPTP challenge and further treated with compound until day 14 by open field test; assay type: functional, organism-based; conditions: time 14.0 day
Mus musculus [10] = assay: Neuroprotective activity against MPTP-induced C57BL/6J mouse model of Parkinson's disease assessed as increase in total distance at 0.2 mg/kg, ip pretreated for 7 consecutive days followed by MPTP challenge and further treated with compound until day 14 by open field test; assay type: functional, organism-based; conditions: time 14.0 day
Mus musculus [11] = assay: Neuroprotective activity against MPTP-induced C57BL/6J mouse model of Parkinson's disease assessed as decrease in immobility time at 0.2 mg/kg, ip pretreated for 7 consecutive days followed by MPTP challenge and further treated with compound until day 14 by open field test; assay type: functional, organism-based; conditions: time 14.0 day
[12] = target: T1, Amine oxidase [flavin-containing] B; assay: Inhibition of human MAO-A; assay type: ADME

pIC50 [1] | Ratio IC50 [2] | Compound | other results
5.43 | 0.076 | C#CCNC1CCc2c(SCCc3cccc(C(F)(F)F)c3)cccc21 (stereo unspecified) | –
4.52 | 0.02 | C#CCNC1CCc2c(SCCc3cccc(Br)c3)cccc21 (stereo unspecified) | –
4.79 | 0.54 | C#CCNC1CCc2c(SCCc3ccc(C(F)(F)F)cc3)cccc21 (stereo unspecified) | –
4.96 | 0.085 | C#CCNC1CCc2c(SCCc3ccc(Cl)cc3)cccc21 (stereo unspecified) | –
5.41 | 0.73 | C#CCNC1CCc2c(SCCc3ccc(Cl)c(Cl)c3)cccc21 (stereo unspecified) | –
5.49 | – | C#CCNC1CCc2c(SCCc3ccc(F)c(F)c3)cccc21 (stereo unspecified) | –
< 4.00 | – | C#CCNC1CCc2c(SCc3cccc(Br)c3)cccc21 (stereo unspecified) | –
4.21 | 13.5 | C#CCNC1CCc2c(SCCc3ccc(OC)cc3)cccc21 (stereo unspecified) | –
4.08 | – | C#CCNC1CCc2c(SCCc3cccc(Cl)c3)cccc21 (stereo unspecified) | –
4.54 | 0.13 | C#CCNC1CCc2c(SCCc3cccc(OC)c3)cccc21 (stereo unspecified) | –
5.37 | 1.82 | C#CCNC1CCc2c(SCCc3cccc(F)c3)cccc21 (stereo unspecified) | –
5.81 | 0.2 | C#CCNC1CCc2c(SCc3ccc(C)cc3)cccc21 (stereo unspecified) | –
5.72 | 2.09 | C#CCNC1CCc2c(SCc3ccc(OC)cc3)cccc21 (stereo unspecified) | –
4.59 | 0.18 | C#CCNC1CCc2c(SCCc3ccc(C)cc3)cccc21 (stereo unspecified) | –
5.88 | 0.37 | C#CCNC1CCc2c(SCc3ccc(Br)cc3)cccc21 (stereo unspecified) | –
4.07 | 0.015 | C#CCNC1CCc2c(SCCc3ccc(Br)cc3)cccc21 (stereo unspecified) | –
9.46 | 14200 | C#CCNC1CCc2c(SCCc3cccc(C)c3)cccc21 (stereo unspecified) | Activity (SH-SY5Y [3]): Non-Toxic; Activity (BV-2 [4]): Non-Toxic; Activity (BV-2 [5]): 30%; Activity (SH-SY5Y [6]): 30%; Activity (BV-2 [7]): Active; Activity (SH-SY5Y [8]): Active; Activity (Mus musculus [9]): Active; Activity (Mus musculus [10]): Active; Activity (Mus musculus [11]): Active

More lines, now with the values behind:

Compound | pIC50 [1] | Ratio IC50 [2] | other results
C#CCNC1CCc2c(NCc3cccc(C(F)(F)F)c3)cccc21 (stereo unspecified) | 5.29 | 2.21 | –
C#CCNC1CCc2c(SCc3cccc(OC)c3)cccc21 (stereo unspecified) | 5.50 | 0.48 | –
C#CCNC1CCc2c(SCc3cccc(Cl)c3)cccc21 (stereo unspecified) | 4.63 | 0.047 | –
C#CCNC1CCc2c(SCc3cccc(F)c3)cccc21 (stereo unspecified) | 5.83 | 7.79 | –
C#CCNC1CCc2c(SCc3ccc4ccccc4c3)cccc21 (stereo unspecified) | 5.31 | 14 | –
C#CCNC1CCc2c(SCc3ccc(Cl)cc3Cl)cccc21 (stereo unspecified) | 5.42 | 5.93 | –
C#CCNC1CCc2c(SCc3cccc(C)c3)cccc21 (stereo unspecified) | < 4.00 | – | –
C#CCNC1CCc2c(SCc3cccc(C(F)(F)F)c3)cccc21 (stereo unspecified) | 8.33 | 1640 | Activity (SH-SY5Y [3]): Non-Toxic; Activity (BV-2 [4]): Non-Toxic; Activity (BV-2 [5]): 30%; Activity (SH-SY5Y [6]): 30%; Activity (BV-2 [7]): Active; Activity (SH-SY5Y [8]): Active; Activity (Mus musculus [9]): Active; Activity (Mus musculus [10]): Active; Activity (Mus musculus [11]): Active
C#CCNC1CCc2c(SCc3ccc(Cl)c(Cl)c3)cccc21 (stereo unspecified) | 5.55 | 0.026 | –
C#CCNC1CCc2c(SCc3ccc(F)c(F)c3)cccc21 (stereo unspecified) | 5.58 | 0.99 | –
C#CCNC1CCc2c(SCc3ccc(C(F)(F)F)cc3)cccc21 (stereo unspecified) | 5.01 | 0.096 | –
C#CCNC1CCc2c(OCc3cccc(C(F)(F)F)c3)cccc21 (stereo unspecified) | 5.19 | 0.84 | –
C#CCNC1CCc2c(SCc3ccc(F)cc3F)cccc21 (stereo unspecified) | 5.61 | 0.61 | –
C#CCN[C@@H]1CCc2ccccc21 [RASAGILINE] | – | – | Activity (SH-SY5Y [3]): Non-Toxic; Activity (BV-2 [4]): Non-Toxic; Activity (BV-2 [5]): 30%; Activity (SH-SY5Y [6]): 30%; Activity (BV-2 [7]): Active; Activity (SH-SY5Y [8]): Active; Activity (Mus musculus [9]): Active; Activity (Mus musculus [10]): Active; Activity (Mus musculus [11]): Active
C#CCNC1CCc2c(SCc3ccccc3)cccc21 (stereo unspecified) | 5.19 | > 15.6 | IC50 [12]: Not Active

From ChEMBL document CHEMBL4811259, “Novel 1-(prop-2-yn-1-ylamino)-2,3-dihydro-1H-indene-4-thiol derivatives as potent selective human monoamine oxidase B inhibitors: Design, SAR development, and biological evaluation” (Bioorg Med Chem Lett, 2021)
